These results are taken from publication PMC11915855, “The flavonoid-sensing regulator AefR is involved in modulating quorum sensing through repressing the MexEF-OprN efflux pump in Pseudomonas fluorescens” (mSystems, 2025).

Broadly, the Kd is the free concentration of one partner at which half of the binding sites on the other are occupied at equilibrium, for simple one-to-one binding. A high value points to lower affinity.

Like-named read-outs stand apart in the source and are kept apart here.

Assay [1] deals with T1, AefR.
T1 construct: His6-AefR (aefR gene in a pET-28b-derived vector)
The experiment in a line: ITC with purified His6-AefR; supported by EMSA (disrupts AefR-pmexEF-oprN interaction at […]). Format: binding, Pseudomonas fluorescens. In general terms: A gel shift assay detects complexes by their altered migration in electrophoresis.

Assay [2] has as its target T1, AefR. The description is as above. The assay is classed as binding, Pseudomonas fluorescens. This is another data set of the same source.

Compound `O=c1cc(-c2ccc(O)cc2)oc2cc(O)cc(O)c12` [apigenin] registered a Kd in assay [1] of 162 µM.

`O=C(CCc1ccc(O)cc1)c1c(O)cc(O)cc1O` [phloretin] had a Kd in assay [2] of 2.79 µM. On the same count and under the same terms, with `O=c1c(O)c(-c2ccc(O)c(O)c2)oc2cc(O)cc(O)c12` [quercetin] the figure was 640 µM.
